Assay results taken from ChEMBL document CHEMBL1127985, “Synthesis and biological evaluation of new LTA4 analogs” (Bioorg Med Chem Lett, 1994).
pIC50: −log10 of the molar value.

Columns and labels:
Cavia porcellus [1] = organism: Cavia porcellus; assay: Compound was tested for inhibition of LTD4 induced contraction of guinea pig ileum; assay type: functional
Cavia porcellus [2] = organism: Cavia porcellus; assay: Compound was tested for inhibition of LTD4 induced contraction of guinea pig ileum at a concentration 5E-5 M; NS means No significant effect; assay type: functional

SMILES	pIC50 (Cavia porcellus [1])	IC50 (Cavia porcellus [2])
CCCCC/C=C\C\C=C/C=C/C=C/c1conc1CCCC(=O)OC	4.25	
CCCCCCCCCC/C=C/C=C/c1cc(CCC(=O)OC)no1		Not Active

More lines, now with the values ahead:

pIC50 (Cavia porcellus [1])	IC50 (Cavia porcellus [2])	SMILES
4.02		CCCCC/C=C\C\C=C/C=C/C=C/C1CC(CCC(=O)OC)=NO1 (stereo not given)
4.22		CCCCC/C=C\C\C=C/C=C/C=C/c1conc1CCC(=O)OC
	Not Active	CCCCC/C=C\C\C=C/C=C/C=C/c1cc(CCC(=O)OC)no1
